IC50 data for 25 compounds are collected here from ChEMBL document CHEMBL2021894, “The Discovery of VX-745: A Novel and Selective p38α Kinase Inhibitor” (ACS Med Chem Lett, 2011).

Test [1] addresses T1, Mitogen-activated protein kinase 14 (Homo sapiens, UniProt Q16539). The experiment in a line: Inhibition of p38alpha in human PBMC assessed as inhibition of LPS-induced IL1beta production after 16 to 18 hrs by ELISA.
In test [2] the target is T1, Mitogen-activated protein kinase 14. The experiment in a line: Inhibition of p38alpha in human PBMC assessed as inhibition of LPS-induced TNFalpha production after 16 to 18 hrs by ELISA. In general terms: ELISA stands for enzyme-linked immunosorbent assay.
Test [3] shares this target. The experiment in a line: Inhibition of p38alpha kinase using KRELVEPLTPSGEAPNQALLR as substrate for 20 mins by lactate dehydrogenase-coupled spectrophotometric assay.

T1 sequence (Q16539 whole entry): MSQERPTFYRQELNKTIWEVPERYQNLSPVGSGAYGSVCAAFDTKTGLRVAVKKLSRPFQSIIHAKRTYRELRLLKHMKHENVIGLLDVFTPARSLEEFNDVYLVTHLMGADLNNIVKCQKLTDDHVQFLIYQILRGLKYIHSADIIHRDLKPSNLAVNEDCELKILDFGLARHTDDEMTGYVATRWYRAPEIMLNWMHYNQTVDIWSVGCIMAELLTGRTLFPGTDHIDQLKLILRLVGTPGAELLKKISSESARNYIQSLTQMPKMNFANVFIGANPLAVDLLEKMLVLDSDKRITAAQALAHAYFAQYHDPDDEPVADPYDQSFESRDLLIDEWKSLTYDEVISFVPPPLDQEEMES

By IC50 is commonly meant the point on the concentration scale where inhibition reaches its midpoint. On to `O=c1ncn2nc(Sc3ccccc3)ccc2c1-c1c(Cl)cccc1Cl`, for which the results for the IC50 in test [1], in test [2] and in test [3] were 400 nM, 460 nM and 250 nM, respectively.
Turning to `O=c1ncn2nc(Sc3ccc(Cl)c(Cl)c3)ccc2c1-c1c(Cl)cccc1Cl`, the half-maximal inhibitory concentration (IC50) in test [2] is 1200 nM; in test [3] it was 800 nM.
`Cc1ccc(Sc2ccc3c(-c4c(Cl)cccc4Cl)c(=O)ncn3n2)cc1`: the IC50 amounted to 370 nM in test [1] and 1400 nM in test [3].
In test [3], `O=c1ncn2nc(Sc3cccc(Cl)c3)ccc2c1-c1c(Cl)cccc1Cl` returned a half-maximal inhibitory concentration (IC50) of 280 nM.
On to `O=c1ncn2nc(Sc3cccc(F)c3)ccc2c1-c1c(Cl)cccc1Cl`, for which the IC50 in test [1] was determined as 440 nM; in test [2], 720 nM.
Take `Cc1cc(Cl)ccc1Sc1ccc2c(-c3c(Cl)cccc3Cl)c(=O)ncn2n1`: the IC50 in test [1] was 180 nM; in test [2], 160 nM; in test [3], 180 nM.
For the compound `O=c1ncn2nc(Sc3ccccc3O)ccc2c1-c1c(Cl)cccc1Cl`, the IC50 in test [1] was 140 nM; in test [2] it was 490 nM; in test [3] it was 360 nM.
Turning to `O=c1ncn2nc(Sc3ccccc3)ccc2c1-c1ccc(Cl)cc1Cl`, the IC50 in test [1] stood at 20000 nM; in test [2] it was 20000 nM; in test [3], 5000 nM.
In turn, `O=c1ncn2nc(Sc3ccccc3)ccc2c1-c1ccccc1` gave a 50% inhibitory concentration (IC50) in test [3] greater than 20000 nM.
Take `Cc1ccccc1-c1c(=O)ncn2nc(Sc3ccccc3)ccc12`: the IC50 in test [2] turned out to be 9700 nM; in test [3], 4400 nM.
With `COc1ccccc1-c1c(=O)ncn2nc(Sc3ccccc3)ccc12`, the IC50 was 2800 nM in test [1] and 12000 nM in test [3].
Regarding `O=c1ncn2nc(Sc3ccccc3)ccc2c1-c1ccccc1C(F)(F)F`, the IC50 in test [1] is 2100 nM; in test [2], greater than 20000 nM; in test [3], 11000 nM.
Regarding `O=c1ncn2nc(Sc3ccccc3)ccc2c1-c1ccccc1Cl`, in test [3], the midpoint of inhibition, the IC50, lay at 4100 nM.
For `O=c1ncn2nc(Sc3ccccc3)ccc2c1-c1ccc(F)cc1`, the IC50 in test [2] and in test [3] was greater than 20000 nM in each case.
On to `O=c1ncn2nc(Sc3ccccc3)ccc2c1-c1c(F)cccc1C(F)(F)F`, for which the results for the IC50 in test [1], in test [2] and in test [3] were 1000 nM, 3100 nM and 1700 nM, respectively.
As to `O=c1ncn2nc(Sc3ccccc3)ccc2c1-c1c(F)cccc1F`, the IC50 in test [1] was determined as 3700 nM; in test [2] it was 15300 nM; in test [3] it was 3500 nM.
`CCc1ccccc1Sc1ccc2c(-c3c(Cl)cccc3Cl)c(=O)ncn2n1`: the IC50 in test [1] was determined as 980 nM; in test [2], 2800 nM; in test [3] it was 750 nM.
In test [3], `Cc1cccc(Sc2ccc3c(-c4c(Cl)cccc4Cl)c(=O)ncn3n2)c1` registered an IC50 of 1400 nM.
Consider `Nc1cc(F)ccc1Sc1ccc2c(-c3c(Cl)cccc3Cl)c(=O)ncn2n1`, for which the values for the IC50 in test [1], in test [2] and in test [3] were 280 nM, 1200 nM and 220 nM, respectively.
Take `Cc1ccccc1Sc1ccc2c(-c3c(Cl)cccc3Cl)c(=O)ncn2n1`: the IC50 in test [1] was 330 nM; in test [2] it was 3700 nM; in test [3], 200 nM.
`O=c1ncn2nc(Sc3ccc(F)cc3)ccc2c1-c1c(Cl)cccc1Cl`: the IC50 is 293 nM in test [2] and 123 nM in test [3].
Turning to `Cc1ccc(Sc2ccc3c(-c4c(Cl)cccc4Cl)c(=O)ncn3n2)cc1C`, the IC50 worked out at 2400 nM in test [1], 3500 nM in test [2] and 1900 nM in test [3].
The corresponding values for `Cc1ccc(Sc2ccc3c(-c4c(Cl)cccc4Cl)c(=O)ncn3n2)c(C)c1` are 690 nM, 320 nM and 260 nM.
The corresponding values for `O=c1ncn2nc(Sc3ccc(F)cc3Cl)ccc2c1-c1c(Cl)cccc1Cl` are 53 nM, 275 nM and 36 nM.
The corresponding values for `O=c1ncn2nc(Sc3ccc(F)c(Cl)c3)ccc2c1-c1c(Cl)cccc1Cl` are 180 nM, 480 nM and 500 nM.
